Assay results published in ChEMBL document CHEMBL2384919, “Identification of New Nonsteroidal RORα Ligands; Related Structure-Activity Relationships and Docking Studies” (ACS Med Chem Lett, 2013).
Activity calls are given as the source filed them. The rule behind the calls is not given here.

Legend:
[1] = biological target: T1, Nuclear receptor ROR-alpha (Homo sapiens) (UniProt P35398); assay: Partial agonist activity at GST-fussed RORalpha (unknown origin) assessed as recruitment of TIF2 mutant-BAP protein after overnight incubation by pull down assay
T1 sequence (whole entry): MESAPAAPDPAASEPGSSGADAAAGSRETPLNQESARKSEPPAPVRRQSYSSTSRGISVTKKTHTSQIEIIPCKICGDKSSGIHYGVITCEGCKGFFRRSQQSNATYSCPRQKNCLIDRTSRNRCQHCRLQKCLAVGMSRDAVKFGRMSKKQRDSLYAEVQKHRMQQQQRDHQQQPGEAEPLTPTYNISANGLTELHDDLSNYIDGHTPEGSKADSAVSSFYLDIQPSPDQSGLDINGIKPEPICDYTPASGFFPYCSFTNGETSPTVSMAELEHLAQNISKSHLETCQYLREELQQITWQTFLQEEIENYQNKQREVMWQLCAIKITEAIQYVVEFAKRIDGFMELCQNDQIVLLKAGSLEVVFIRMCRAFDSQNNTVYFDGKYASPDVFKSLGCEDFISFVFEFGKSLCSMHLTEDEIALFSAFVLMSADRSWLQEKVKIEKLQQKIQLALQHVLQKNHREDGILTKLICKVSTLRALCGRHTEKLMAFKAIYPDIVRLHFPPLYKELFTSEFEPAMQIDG

[2] = biological target: T2, Nuclear receptor ROR-alpha (Homo sapiens, UniProt P35398); assay: Partial agonist activity at GST-fussed RORalpha (unknown origin) assessed as recruitment of TIF2-BAP protein after overnight incubation by pull down assay
T2 sequence (P35398 whole entry): T1 sequence (whole entry)

[3] = biological target: T1, Nuclear receptor ROR-alpha (Homo sapiens); assay: Partial agonist activity at GST-fussed RORalpha (unknown origin) assessed as recruitment of TIF2-BAP protein after overnight incubation by pull down assay relative to 7DC
[4] = biological target: T1, Nuclear receptor ROR-alpha (Homo sapiens); assay: Partial agonist activity at GST-fussed RORalpha (unknown origin) assessed as recruitment of TIF2-BAP protein at 30 uM after overnight incubation by pull down assay relative to 7DC

| Compound | Activity [1] | EC50 [2] | Emax [3] | Activity [4] |
| --- | --- | --- | --- | --- |
| CC1=C(C(=O)OCC(F)(F)F)C(c2ccc(OCc3ccccc3)cc2)NC(=O)N1 (racemic) | inactive | > 30 µM | 12% | – |
| CCOC(=O)C1=C(C)NC(=O)NC1c1cc(OC)c(OCc2ccccc2Cl)cc1Cl (racemic) | – | 5.5 µM | 55% | – |
| COc1cc(C2NC(=O)NC(C)=C2C(C)=O)ccc1OCc1ccccc1Cl (racemic) | inactive | 28.2 µM | 48% | – |
| CCOC(=O)C1=C(C)N(C)C(=O)NC1c1ccc(OCc2ccccc2)c(OC)c1 (racemic) | inactive | > 19 µM | 29% | – |
| CCOC(=O)C1=C(C)NC(=O)N(C)C1c1ccc(OCc2ccccc2)c(OC)c1 (racemic) | inactive | > 30 µM | 19% | – |
| CC1=C(C(=O)Nc2ccccc2)C(c2ccc(OCc3ccccc3)cc2)NC(=O)N1 (racemic) | inactive | – | – | inactive |
| CC1=C(C(=O)OCC(C)C)C(c2ccc(OCc3ccccc3)cc2)NC(=O)N1 (racemic) | inactive | – | – | inactive |
| CCC(C)NC(=O)C1=C(C)NC(=O)NC1c1ccc(OCc2ccccc2)cc1 (racemic) | inactive | – | – | inactive |
| CCCOc1ccc(C2NC(=O)NC(C)=C2C(=O)OCC)cc1OC (racemic) | inactive | – | – | inactive |
| CCOC(=O)C1=C(C)NC(=O)NC1c1cc(OC)c(O)cc1Cl (racemic) | inactive | – | – | inactive |
| CCOC(=O)C1=C(C)NC(=O)NC1c1cc(OC)c(OC)cc1Cl (racemic) | inactive | – | – | inactive |
| CCOc1cc(C2NC(=O)NC(C)=C2C(C)=O)ccc1OCc1ccccc1Cl (single isomer, unassigned; enantiomer 1) [listing 1 of 2 here] | – | 10.9 µM | – | – |
| CCOc1cc(C2NC(=O)NC(C)=C2C(C)=O)ccc1OCc1ccccc1Cl (single isomer, unassigned; enantiomer 1) [listing 2 of 2 here] | inactive | – | 85% | – |
| CCOc1cc(C2NC(=O)NC(C)=C2C(C)=O)ccc1OCc1ccccc1Cl (single isomer, unassigned; enantiomer 2) [listing 1 of 2 here] | – | > 30 µM | – | – |
| CCOc1cc(C2NC(=O)NC(C)=C2C(C)=O)ccc1OCc1ccccc1Cl (single isomer, unassigned; enantiomer 2) [listing 2 of 2 here] | inactive | – | > 41% | – |
| CCOc1cc(C2NC(=O)NC(C)=C2C(C)=O)ccc1OCc1ccccc1Cl (stereo in doubt; 1) [listing 1 of 2 here] | – | 12.7 µM | – | – |
| CCOc1cc(C2NC(=O)NC(C)=C2C(C)=O)ccc1OCc1ccccc1Cl (stereo in doubt; 1) [listing 2 of 2 here] | inactive | – | 88% | – |

Second part, the molecule after the results:

| Activity [1] | EC50 [2] | Emax [3] | Activity [4] | Compound |
| --- | --- | --- | --- | --- |
| inactive | 4.3 µM | 25% | – | CCOC(=O)C1=C(C)NC(=O)NC1c1ccc(OCc2ccccc2)cc1 (racemic) |
| inactive | 10.9 µM | 19% | – | COc1ccc(COC(=O)C2=C(C)NC(=O)NC2c2ccc(OCc3ccccc3)c(OC)c2)cc1 (racemic) |
| inactive | 26.2 µM | 55% | – | COc1cccc(COC(=O)C2=C(C)NC(=O)NC2c2ccc(OCc3ccccc3)c(OC)c2)c1 (racemic) |
| inactive | 26.3 µM | 43% | – | COc1ccc(COC(=O)C2=C(C)NC(=O)NC2c2ccc(OCc3ccccc3)c(OC)c2)cc1OC (racemic) |
| inactive | 12.5 µM | 70% | – | COc1cc(C2NC(=O)NC(C)=C2C(=O)OCc2ccc3c(c2)OCO3)ccc1OCc1ccccc1 (racemic) |
| inactive | > 30 µM | 27% | – | COc1cc(C2NC(=O)NC(C)=C2C(=O)OCCSC)ccc1OCc1ccccc1 (racemic) |
| inactive | 13.1 µM | 33% | – | COC(=O)C1=C(C)NC(=O)NC1c1ccc(OCc2ccccc2)c(OC)c1 (racemic) |
| inactive | 22.9 µM | 76% | – | C=CCOC(=O)C1=C(C)NC(=O)NC1c1ccc(OCc2ccccc2)c(OC)c1 (racemic) |
| inactive | 14 µM | 58% | – | CCCCOC(=O)C1=C(C)NC(=O)NC1c1ccc(OCc2ccccc2)c(OC)c1 (racemic) |
| inactive | > 30 µM | 80% | – | COc1cc(C2NC(=O)NC(C)=C2C(=O)OCC(F)(F)F)ccc1OCc1ccccc1 (racemic) |
| – | 8.1 µM | 39% | – | CC1=C(C(=O)OCCOc2ccccc2)C(c2ccc(OCc3ccccc3)cc2)NC(=O)N1 (racemic) |
| – | 8.9 µM | 56% | – | CCOC(=O)C1=C(C)NC(=O)NC1c1ccc(OCc2ccccc2)c(OC)c1 (racemic) |
| inactive | 20.3 µM | 36% | – | CCOC(=O)C1=C(C)NC(=O)NC1c1ccc(OCCc2ccccc2)c(OC)c1 (racemic) |
| inactive | > 30 µM | > 45% | – | CCOC(=O)C1=C(CC)NC(=O)NC1c1ccc(OCc2ccccc2)c(OC)c1 (racemic) |
| inactive | > 30 µM | 44% | – | COc1cc(C2NC(=O)NC(C)=C2C(=O)OCc2ccccc2)ccc1OCc1ccccc1 (racemic) |
| inactive | – | – | inactive | CCOC(=O)C1=C(C)NC(=O)NC1c1ccc(OCCCc2ccccc2)c(OC)c1 (racemic) |
| inactive | – | – | inactive | COc1cc(C2NC(=O)NC(C)=C2C(=O)NCc2ccccc2)ccc1OCc1ccccc1 (racemic) |
| inactive | – | – | inactive | COc1cc(C2NC(=O)NC(C)=C2C(=O)O)ccc1OCc1ccccc1 (racemic) |
| inactive | – | – | inactive | COc1cc(C2NC(=O)NC(C)=C2C(=O)OCC2CCCCC2)ccc1OCc1ccccc1 (racemic) |
| inactive | – | – | inactive | COc1cc(C2NC(=O)NC(C)=C2C(=O)OCC2CCCO2)ccc1OCc1ccccc1 (racemic) |
| inactive | – | – | inactive | COc1cc(C2NC(=O)NC(C)=C2C(=O)OCCOC(C)C)ccc1OCc1ccccc1 (racemic) |
| inactive | – | – | inactive | COc1cc(C2NC(=O)NC(C)=C2C(=O)OCCc2ccccc2)ccc1OCc1ccccc1 (racemic) |
| inactive | – | – | inactive | COc1cc(C2NC(=O)NC(C)=C2C(C)=O)ccc1OCc1ccccc1 (racemic) |
| inactive | – | – | inactive | COc1cc(C2NC(=O)NC(C)=C2C(N)=O)ccc1OCc1ccccc1 (racemic) |
